Experimental data from ChEMBL document CHEMBL5465560, “Selectivity Literature for EUbOPEN Chemogenomic Library” (2024).

Legend:
[1] = target: T1, Cyclin-G-associated kinase (Homo sapiens) (UniProt O14976); assay: Selectivity interaction (KinomeScan (DiscoverX)) EUB0000229b GAK; settings: at 10 µM
T1 sequence (whole entry): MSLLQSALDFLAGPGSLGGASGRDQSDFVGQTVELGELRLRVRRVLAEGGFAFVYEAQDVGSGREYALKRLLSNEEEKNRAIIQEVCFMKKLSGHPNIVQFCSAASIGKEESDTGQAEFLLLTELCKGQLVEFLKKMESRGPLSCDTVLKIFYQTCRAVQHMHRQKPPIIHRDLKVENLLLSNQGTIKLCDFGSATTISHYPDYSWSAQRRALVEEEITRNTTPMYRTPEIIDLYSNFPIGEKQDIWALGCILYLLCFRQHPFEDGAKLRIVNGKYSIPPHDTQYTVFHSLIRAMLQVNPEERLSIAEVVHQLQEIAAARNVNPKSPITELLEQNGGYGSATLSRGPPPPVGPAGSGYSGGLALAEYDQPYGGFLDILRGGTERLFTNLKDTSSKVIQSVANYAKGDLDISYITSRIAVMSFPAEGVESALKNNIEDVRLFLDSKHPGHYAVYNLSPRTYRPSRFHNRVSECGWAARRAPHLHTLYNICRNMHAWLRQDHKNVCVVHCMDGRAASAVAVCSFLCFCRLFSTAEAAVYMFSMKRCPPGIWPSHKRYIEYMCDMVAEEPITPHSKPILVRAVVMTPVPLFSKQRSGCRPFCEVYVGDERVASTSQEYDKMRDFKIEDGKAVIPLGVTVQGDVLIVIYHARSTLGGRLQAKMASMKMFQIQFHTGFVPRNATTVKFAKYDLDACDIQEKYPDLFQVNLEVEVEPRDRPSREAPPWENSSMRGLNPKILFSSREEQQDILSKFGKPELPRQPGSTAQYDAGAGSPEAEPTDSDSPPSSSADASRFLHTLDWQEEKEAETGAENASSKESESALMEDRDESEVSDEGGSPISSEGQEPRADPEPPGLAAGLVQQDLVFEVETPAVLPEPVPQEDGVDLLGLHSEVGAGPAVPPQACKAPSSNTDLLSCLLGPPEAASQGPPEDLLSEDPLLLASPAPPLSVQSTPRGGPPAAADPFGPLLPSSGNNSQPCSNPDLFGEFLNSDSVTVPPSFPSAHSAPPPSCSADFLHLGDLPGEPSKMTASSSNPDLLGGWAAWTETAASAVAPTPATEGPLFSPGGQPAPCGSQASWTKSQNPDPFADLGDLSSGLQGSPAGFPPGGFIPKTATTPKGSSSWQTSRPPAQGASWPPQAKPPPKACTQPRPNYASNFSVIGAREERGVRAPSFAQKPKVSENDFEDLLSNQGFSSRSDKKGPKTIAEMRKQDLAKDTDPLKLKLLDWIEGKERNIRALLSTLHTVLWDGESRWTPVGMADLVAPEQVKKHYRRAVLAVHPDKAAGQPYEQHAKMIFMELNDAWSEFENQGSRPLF

[2] = target: Platelet-derived growth factor receptor beta (Homo sapiens, UniProt P09619); assay: Selectivity interaction (Upstate Kinase Profiler service (Millipore)) EUB0000056c PDGFRB; settings: at 1 µM
Platelet-derived growth factor receptor beta, sequence (P09619 whole entry): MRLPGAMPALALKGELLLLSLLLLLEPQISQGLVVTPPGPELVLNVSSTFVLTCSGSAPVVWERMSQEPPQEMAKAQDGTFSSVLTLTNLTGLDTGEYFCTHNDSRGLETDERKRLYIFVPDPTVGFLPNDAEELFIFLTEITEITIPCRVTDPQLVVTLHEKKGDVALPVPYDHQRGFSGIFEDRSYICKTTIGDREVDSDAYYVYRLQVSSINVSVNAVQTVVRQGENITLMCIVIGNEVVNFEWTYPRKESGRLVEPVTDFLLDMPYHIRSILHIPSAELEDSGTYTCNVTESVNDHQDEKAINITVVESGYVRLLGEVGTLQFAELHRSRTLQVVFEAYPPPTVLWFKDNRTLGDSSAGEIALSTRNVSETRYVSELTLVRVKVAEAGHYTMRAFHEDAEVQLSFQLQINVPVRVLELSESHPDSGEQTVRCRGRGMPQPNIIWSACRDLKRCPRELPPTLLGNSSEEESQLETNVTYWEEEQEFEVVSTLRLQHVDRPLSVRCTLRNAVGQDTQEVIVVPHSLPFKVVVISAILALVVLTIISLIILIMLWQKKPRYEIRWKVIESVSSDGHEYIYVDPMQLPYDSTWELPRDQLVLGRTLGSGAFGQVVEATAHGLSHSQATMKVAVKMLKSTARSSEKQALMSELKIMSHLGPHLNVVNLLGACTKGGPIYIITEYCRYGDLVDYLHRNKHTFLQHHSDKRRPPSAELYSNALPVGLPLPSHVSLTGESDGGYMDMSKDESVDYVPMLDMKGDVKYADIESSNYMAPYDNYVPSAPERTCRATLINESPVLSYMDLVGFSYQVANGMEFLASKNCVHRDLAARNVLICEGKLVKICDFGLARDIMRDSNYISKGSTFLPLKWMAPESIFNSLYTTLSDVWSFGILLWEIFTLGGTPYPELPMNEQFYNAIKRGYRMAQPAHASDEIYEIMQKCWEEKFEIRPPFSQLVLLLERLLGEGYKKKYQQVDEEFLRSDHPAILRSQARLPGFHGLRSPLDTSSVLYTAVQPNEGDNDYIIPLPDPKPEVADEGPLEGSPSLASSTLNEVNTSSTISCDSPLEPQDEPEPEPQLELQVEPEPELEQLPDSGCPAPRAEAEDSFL

[3] = target: T2, Mitogen-activated protein kinase kinase kinase kinase 2 (Homo sapiens) (UniProt Q12851); assay: Selectivity interaction (KinomeScan (DiscoverX)) EUB0000666a MAP4K2; settings: at 10 µM
T2 sequence (whole entry): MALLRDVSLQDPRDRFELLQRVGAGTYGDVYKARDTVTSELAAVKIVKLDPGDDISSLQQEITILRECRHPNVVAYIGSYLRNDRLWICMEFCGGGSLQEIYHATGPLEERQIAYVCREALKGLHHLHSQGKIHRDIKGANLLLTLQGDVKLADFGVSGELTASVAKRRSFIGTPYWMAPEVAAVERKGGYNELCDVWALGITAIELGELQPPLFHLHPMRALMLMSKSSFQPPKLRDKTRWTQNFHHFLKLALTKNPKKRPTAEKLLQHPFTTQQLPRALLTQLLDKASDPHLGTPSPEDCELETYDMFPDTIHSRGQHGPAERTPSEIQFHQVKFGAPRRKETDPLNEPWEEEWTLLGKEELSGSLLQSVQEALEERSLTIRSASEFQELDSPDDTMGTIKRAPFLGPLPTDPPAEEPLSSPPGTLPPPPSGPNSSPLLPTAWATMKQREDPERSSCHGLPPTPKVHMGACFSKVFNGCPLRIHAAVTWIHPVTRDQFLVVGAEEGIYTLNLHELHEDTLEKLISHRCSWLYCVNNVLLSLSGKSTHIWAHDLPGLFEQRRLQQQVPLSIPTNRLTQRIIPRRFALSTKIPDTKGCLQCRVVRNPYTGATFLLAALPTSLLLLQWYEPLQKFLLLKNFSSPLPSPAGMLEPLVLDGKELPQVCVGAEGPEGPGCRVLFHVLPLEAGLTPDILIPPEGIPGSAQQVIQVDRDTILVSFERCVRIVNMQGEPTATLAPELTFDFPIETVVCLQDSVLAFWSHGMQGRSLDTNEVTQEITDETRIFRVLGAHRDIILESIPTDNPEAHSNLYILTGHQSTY

[4] = target: Serine/threonine-protein kinase Chk1 (Homo sapiens, UniProt O14757); assay: Selectivity interaction (Enzyme panel (AstraZeneca, AlphaScreen, functional assay)) EUB0000621a CHEK1
Serine/threonine-protein kinase Chk1, sequence (O14757 whole entry): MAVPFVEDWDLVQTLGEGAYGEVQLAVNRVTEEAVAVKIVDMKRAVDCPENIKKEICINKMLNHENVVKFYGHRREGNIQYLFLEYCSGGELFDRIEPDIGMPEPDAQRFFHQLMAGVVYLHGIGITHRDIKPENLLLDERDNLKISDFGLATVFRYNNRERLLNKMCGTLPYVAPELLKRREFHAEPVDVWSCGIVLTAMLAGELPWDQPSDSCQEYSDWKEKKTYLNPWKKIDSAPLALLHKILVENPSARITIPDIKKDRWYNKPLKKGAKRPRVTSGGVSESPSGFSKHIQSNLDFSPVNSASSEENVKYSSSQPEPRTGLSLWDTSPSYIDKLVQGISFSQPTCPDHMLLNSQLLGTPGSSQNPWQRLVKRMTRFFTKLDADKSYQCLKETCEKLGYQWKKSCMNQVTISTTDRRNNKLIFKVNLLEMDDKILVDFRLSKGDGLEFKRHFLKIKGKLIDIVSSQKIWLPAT

[5] = target: Dual specificity mitogen-activated protein kinase kinase 1 (Homo sapiens, UniProt Q02750); assay: Selectivity interaction (ActivX KiNativ screen (kinase selectivity in THP-1 cell lysates)) EUB0000639a MAP2K1; type: subcellular; settings: lysate, at 0.01 µM
Dual specificity mitogen-activated protein kinase kinase 1, sequence (Q02750 whole entry): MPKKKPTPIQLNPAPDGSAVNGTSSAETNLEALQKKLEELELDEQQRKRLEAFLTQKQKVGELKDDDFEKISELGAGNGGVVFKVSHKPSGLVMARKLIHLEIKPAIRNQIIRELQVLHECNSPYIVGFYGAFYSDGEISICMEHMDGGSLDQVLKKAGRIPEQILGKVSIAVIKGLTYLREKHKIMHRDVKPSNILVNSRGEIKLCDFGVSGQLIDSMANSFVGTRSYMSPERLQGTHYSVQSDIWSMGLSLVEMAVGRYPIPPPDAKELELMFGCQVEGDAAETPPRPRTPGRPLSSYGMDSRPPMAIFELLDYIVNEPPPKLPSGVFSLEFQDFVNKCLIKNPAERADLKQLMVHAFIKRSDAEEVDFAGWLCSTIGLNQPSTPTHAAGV

[6] = target: T3, Mitogen-activated protein kinase kinase kinase 7 (Homo sapiens) (UniProt O43318); assay: Selectivity interaction (KinomeScan (DiscoverX)) EUB0000045b MAP3K7
T3 sequence (whole entry): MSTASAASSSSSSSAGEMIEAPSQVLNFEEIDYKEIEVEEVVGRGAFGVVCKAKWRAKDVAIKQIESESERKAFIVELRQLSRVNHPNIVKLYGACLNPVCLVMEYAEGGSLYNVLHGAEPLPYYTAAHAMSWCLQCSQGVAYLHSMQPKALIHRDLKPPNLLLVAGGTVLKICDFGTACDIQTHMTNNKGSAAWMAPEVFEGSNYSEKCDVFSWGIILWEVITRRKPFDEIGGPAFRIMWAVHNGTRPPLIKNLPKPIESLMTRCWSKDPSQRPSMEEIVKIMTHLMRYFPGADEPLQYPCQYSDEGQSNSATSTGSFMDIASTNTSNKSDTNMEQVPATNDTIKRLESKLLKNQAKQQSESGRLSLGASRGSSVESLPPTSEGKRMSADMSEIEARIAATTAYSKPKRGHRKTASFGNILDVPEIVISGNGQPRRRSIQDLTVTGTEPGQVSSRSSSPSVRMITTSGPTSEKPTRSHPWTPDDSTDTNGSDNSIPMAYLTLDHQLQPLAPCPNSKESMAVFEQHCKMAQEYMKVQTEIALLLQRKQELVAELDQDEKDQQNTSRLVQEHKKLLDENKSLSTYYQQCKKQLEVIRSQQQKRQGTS

COc1cc(N(C)c2ccnc3ccc(C(F)(F)F)cc23)cc(OC)c1OC
% binding [1]: 43%

Cc1ccc(-c2ccc3c(ccc4sc5c(c43)NC[C@@H](C)NC5=O)n2)cn1
% of inhibition [2]: -4%

O=C(NOC[C@H](O)CO)c1ccc(F)c(F)c1Nc1ccc(I)cc1F
% of control [3]: 100%

Cc1cc([C@@H](C)Nc2ccccc2C(=O)O)c2nc(N3CCOCC3)cc(=O)n2c1 [AZD-6482]
IC50 [4]: > 1000 µM

CC[C@@H]1[C@H](F)C(=O)N[C@@H]1COc1nccc2cc(C(N)=O)c(OC)cc12 [ZIMLOVISERTIB]
% of inhibition [5]: -1.6%

C=CC(=O)Nc1cc(-n2c(=O)ccc3cnc4ccc(-c5ccc(NS(C)(=O)=O)cc5)cc4c32)ccc1C
% of control ([6]; at 1 µM): 83%
% of control ([6]; at 10 µM): 78%
